Results from patent US10654814B2, “Bicyclic hydroxamic acids useful as inhibitors of mammalian histone deacetylase activity” (KANCERA AB, priority 2015, dated 2020).
Where two headings read alike, the source gives them in different places.

Legend:
[1] = test system: multiple myeloma cell line U266; assay: Annexin V apoptosis assay (flow cytometry), U266; assay type: cell-based; details: 72 hours, relative to 0.2% DMSO
Description: (§1) Method for Measurement of Apoptosis
(§2) The Annexin A5 (or Annexin V) affinity assay provides a method to quantify the number of cells undergoing apoptosis. The assay uses the protein annexin A5 conjugated to fluorescein (FITC Annexin V) and the fluorescent dye propidium iodide (PI) to label early apoptotic (annexin V positive, PI negative) and necrotic/dead cells (annexin V positive, PI positive) quantified by flow cytometry. The annexin A5 protein binds to membrane surfaces containing negatively charged phoshpolipids (phosphatidylserine) which are exposed by apoptotic and dead cells, but not by normal cells. PI binds to nucleic acids in cells which have completely lost the integrity of their plasma membrane, i.e. necrotic cells.
(§3) Standard Annexin V assay protocol was followed (see e.g. http://www.biolegend.com/pop_pdf.php?id=5161 and application references therein). 10,000 cells of each cell line were cultured in 400 μl of medium in 48 well plates. Compounds from 10 mM DMSO stock solutions were added to cells (DMSO content was 0.2%) and incubated for 48 or 72 hours followed by addition of FITC-Annexin V (BioLegend) and PI staining solution (BD Biosciences). The cells were analyzed by flow cytometry, at least 4,000 single cells were analyzed. Compounds were tested either individually at four different concentrations (1, 2.5, 5 and 10 μM) or in combination with 1 μM dexamethasone.
(§4) Annexin V assay results for one compound of the invention (Example 1) with and without 1 μM dexamethasone for the multiple myeloma cell lines OPM-2 and U266 are given in Table 6. In Table 6, the % apoptosis values with compound(s) present are relative to the absence of compounds (only 0.2% DMSO present).

[2] = test system: multiple myeloma cell line OPM-2; assay: Annexin V apoptosis assay (flow cytometry), OPM-2; assay type: cell-based; details: 72 hours, relative to 0.2% DMSO
Description: as §1, §2, §3, §4

[3] = molecular target: HDAC6 (Homo sapiens (Human), UniProt Q9UBN7); assay: HDAC6 in vitro enzymatic assay (fluorescence); assay type: biochemical
HDAC6, sequence (Q9UBN7 whole entry): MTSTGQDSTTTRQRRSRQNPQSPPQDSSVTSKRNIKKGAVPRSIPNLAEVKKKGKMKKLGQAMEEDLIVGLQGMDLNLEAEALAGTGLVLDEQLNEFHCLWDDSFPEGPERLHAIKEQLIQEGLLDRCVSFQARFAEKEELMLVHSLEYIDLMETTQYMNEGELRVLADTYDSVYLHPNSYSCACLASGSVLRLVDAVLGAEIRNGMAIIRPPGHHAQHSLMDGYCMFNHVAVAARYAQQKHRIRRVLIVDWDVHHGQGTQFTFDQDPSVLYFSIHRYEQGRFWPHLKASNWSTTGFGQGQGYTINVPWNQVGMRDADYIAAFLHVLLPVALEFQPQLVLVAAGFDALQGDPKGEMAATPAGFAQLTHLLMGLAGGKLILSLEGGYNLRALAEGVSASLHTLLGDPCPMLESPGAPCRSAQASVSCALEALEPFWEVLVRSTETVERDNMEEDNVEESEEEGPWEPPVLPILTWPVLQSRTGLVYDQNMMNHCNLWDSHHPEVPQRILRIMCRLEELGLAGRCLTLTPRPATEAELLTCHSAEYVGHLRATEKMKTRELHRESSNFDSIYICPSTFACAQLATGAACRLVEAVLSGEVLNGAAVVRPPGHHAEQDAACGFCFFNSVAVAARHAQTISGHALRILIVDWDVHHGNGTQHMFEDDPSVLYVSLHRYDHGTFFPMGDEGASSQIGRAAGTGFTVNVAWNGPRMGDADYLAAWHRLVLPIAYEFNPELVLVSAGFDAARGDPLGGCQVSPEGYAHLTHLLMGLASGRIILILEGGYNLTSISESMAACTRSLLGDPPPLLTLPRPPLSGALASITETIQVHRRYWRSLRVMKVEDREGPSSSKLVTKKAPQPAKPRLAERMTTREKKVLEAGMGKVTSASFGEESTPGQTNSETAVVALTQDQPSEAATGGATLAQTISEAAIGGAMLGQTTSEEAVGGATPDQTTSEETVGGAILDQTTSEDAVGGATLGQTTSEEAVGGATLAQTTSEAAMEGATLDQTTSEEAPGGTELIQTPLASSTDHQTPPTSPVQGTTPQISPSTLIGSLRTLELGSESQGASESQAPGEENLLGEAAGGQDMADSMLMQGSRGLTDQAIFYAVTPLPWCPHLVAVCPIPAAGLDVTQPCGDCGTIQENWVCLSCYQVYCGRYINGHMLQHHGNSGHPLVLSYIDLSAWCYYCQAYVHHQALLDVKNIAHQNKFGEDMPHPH
Outline: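 Fluorogenic HDAC substrate reactions contained assay buffer, BSA and compound, followed by developer. Fluorescence was read at ex 360/em 460 nm. Compounds were tested as 11-point 1:3 dilutions from a top of 200 μM for HDAC1, 2 and 3, and from 2 μM for HDAC6, in duplicate.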

[4] = test system: MDA-MB-231 (breast adenocarcinoma) cells; assay: CellTiter-Blue cell viability assay, MDA-MB-231; assay type: cell-based; details: Homo sapiens, 72 hours of treatment
Description: (§5) Method for Measurement of Cell Viability
(§6) The CellTiter-Blue® Cell Viability Assay (Promega) provides a homogeneous, fluorometric method for estimating the number of viable cells present in multi-well plates. The assay uses the indicator dye resazurin to measure the metabolic capacity of cells. Viable cells retain the ability to reduce resazurin into resorufin, which is highly fluorescent.
(§7) Stock solutions (10 mM in DMSO) of compounds were serially diluted 1:2 in 11 concentrations. 50 nL/well (10 mM compound stock in DMSO) was acoustically dispensed in 384-well assay plates with an acoustic dispenser (EDC Biosystems ATS-100AV). Final starting concentration in the assay was 20 μM (0.2% DMSO) for test compounds. The following cell-lines (and origin) have been primarily used: PaCa2 (pancreatic), U266 (multiple myeloma), AMO-1 (plasmacytoma), and MDA-MB-231 (breast adenocarcinoma). PBMCs (peripheral blood mononuclear cells) from healthy donors were used as control cells. Cells were seeded in assay plates (384-well black/clear, Greiner #781091) pre-dispensed with compounds, 25 μL/well, and cultured for 72 hours. After 72 hours, Celltiter Blue reagent (Promega # G8081) was diluted 1:10 with PBS and then added to wells (5 μL/well). The plates were incubated for 2 hours following addition of reagent. The plates were read in an EnVision fluorescence reader (PerkinElmer) with Ex544 nm/Em590 nm. Results were calculated as % cell viability compared to background (cells treated with 0.2% DMSO).

[5] = molecular target: HDAC8 (Homo sapiens (Human), UniProt Q9BY41); assay: HDAC8 in vitro enzymatic assay (fluorescence); assay type: biochemical; details: Table 4 selectivity profiling
HDAC8, sequence (Q9BY41 whole entry): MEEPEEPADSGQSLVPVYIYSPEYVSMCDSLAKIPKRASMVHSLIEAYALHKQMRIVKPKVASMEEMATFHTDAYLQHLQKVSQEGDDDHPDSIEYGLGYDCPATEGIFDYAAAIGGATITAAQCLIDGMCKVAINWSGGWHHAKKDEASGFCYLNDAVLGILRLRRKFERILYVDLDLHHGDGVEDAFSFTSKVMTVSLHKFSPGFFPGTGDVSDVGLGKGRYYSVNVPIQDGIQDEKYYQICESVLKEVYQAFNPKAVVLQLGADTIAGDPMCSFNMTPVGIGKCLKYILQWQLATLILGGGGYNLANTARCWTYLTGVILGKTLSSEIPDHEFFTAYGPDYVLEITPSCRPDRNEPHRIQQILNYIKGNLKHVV
Description: (§8) Biological Tests Method for Measurement of Enzymatic Activity of HDACs Materials & Methods
(§9) All Examples were tested in HDAC1,2,3,6 and 8 in vitro enzymatic assays. The assay principle is well known (Hauser et al. 2009, Bradner et al. 2010) and all necessary reagents like enzymes, substrates, developer and reference compounds are commercially available (see e.g. BPS Biosciences http://www.bpsbioscience.com/). Stock solutions (10 mM in DMSO) of compounds were serially diluted 1:3 in 11 concentrations with a top concentration of 200 μM for HDAC1,2,3 and 2 μM for HDAC6 and HDAC8. The enzymatic reactions were conducted in a mixture containing assay buffer, bovine serum albumin, HDAC substrate, and a test compound. After enzymatic reaction, developer was added and after an additional incubation time, fluorescence intensity was measured at an excitation wavelength of 360 nm and an emission wavelength of 460 nm. All experiments were performed in duplicate.

[6] = test system: U266 (multiple myeloma) cells; assay: CellTiter-Blue cell viability assay, U266; assay type: cell-based; details: Homo sapiens, U-266; 72 hours of treatment
Description: as §5, §6, §7

[7] = molecular target: HDAC3 (Homo sapiens (Human), UniProt O15379); assay: HDAC3 in vitro enzymatic assay (fluorescence); assay type: biochemical; details: Table 4 selectivity profiling
HDAC3, sequence (O15379 whole entry): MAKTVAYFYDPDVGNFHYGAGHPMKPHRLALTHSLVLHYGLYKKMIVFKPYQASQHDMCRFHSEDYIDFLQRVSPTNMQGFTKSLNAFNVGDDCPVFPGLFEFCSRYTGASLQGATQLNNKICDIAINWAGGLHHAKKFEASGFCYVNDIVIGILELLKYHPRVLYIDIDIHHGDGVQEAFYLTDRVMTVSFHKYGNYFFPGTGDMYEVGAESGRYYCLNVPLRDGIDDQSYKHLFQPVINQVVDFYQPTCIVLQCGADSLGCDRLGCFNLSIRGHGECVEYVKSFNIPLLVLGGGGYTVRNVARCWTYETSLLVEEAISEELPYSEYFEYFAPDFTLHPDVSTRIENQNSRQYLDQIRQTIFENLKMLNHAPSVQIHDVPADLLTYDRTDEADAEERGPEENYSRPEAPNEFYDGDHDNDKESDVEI
HDAC3, sequence (Q9Y618 395-489 partner): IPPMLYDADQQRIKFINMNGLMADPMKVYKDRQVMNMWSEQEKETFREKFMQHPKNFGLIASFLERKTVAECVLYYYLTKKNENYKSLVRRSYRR
Description: as §8, §9

[8] = molecular target: HDAC1 (Homo sapiens (Human), UniProt Q13547); assay: HDAC1 in vitro enzymatic assay (fluorescence); assay type: biochemical; details: Table 4 selectivity profiling
HDAC1, sequence (Q13547 whole entry): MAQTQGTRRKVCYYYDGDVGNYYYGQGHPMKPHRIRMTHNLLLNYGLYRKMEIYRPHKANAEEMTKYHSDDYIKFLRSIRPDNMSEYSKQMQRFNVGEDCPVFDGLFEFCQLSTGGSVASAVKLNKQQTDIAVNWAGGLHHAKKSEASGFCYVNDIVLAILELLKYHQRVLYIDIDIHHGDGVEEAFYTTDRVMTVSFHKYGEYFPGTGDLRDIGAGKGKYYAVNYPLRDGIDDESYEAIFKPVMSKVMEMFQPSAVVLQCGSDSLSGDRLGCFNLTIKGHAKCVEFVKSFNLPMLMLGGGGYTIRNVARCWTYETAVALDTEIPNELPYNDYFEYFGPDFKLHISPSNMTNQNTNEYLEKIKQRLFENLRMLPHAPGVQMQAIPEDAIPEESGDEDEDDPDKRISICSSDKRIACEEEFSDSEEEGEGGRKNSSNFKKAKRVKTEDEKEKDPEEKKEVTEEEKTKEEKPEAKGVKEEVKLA
Description: as §8, §9

[9] = molecular target: HDAC2 (Homo sapiens (Human), UniProt Q92769); assay: HDAC2 in vitro enzymatic assay (fluorescence); assay type: biochemical; details: Table 4 selectivity profiling
HDAC2, sequence (Q92769 whole entry): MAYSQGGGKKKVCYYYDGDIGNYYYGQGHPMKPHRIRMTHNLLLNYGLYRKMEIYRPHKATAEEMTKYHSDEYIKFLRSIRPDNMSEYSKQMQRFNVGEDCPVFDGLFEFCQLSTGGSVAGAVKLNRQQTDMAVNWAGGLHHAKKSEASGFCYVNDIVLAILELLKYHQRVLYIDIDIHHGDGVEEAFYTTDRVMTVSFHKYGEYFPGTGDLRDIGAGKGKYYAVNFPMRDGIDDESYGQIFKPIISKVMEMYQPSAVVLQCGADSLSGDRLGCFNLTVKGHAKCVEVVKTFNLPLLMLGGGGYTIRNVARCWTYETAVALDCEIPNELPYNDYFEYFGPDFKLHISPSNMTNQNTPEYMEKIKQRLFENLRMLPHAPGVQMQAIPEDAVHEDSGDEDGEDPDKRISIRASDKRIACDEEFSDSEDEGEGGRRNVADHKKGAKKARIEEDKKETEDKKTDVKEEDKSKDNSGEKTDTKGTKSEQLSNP
Description: as §8, §9

[10] = test system: PBMCs (peripheral blood mononuclear cells) from healthy donors; assay: CellTiter-Blue cell viability assay, healthy PBMC; assay type: cell-based; details: 72 hours of treatment
Description: as §5, §6, §7

[11] = test system: AMO-1 (plasmacytoma) cells; assay: CellTiter-Blue cell viability assay, AMO-1; assay type: cell-based; details: Homo sapiens, AMO1; 72 hours of treatment
Description: as §5, §6, §7

[12] = test system: PaCa2 (pancreatic) cells; assay: CellTiter-Blue cell viability assay, PaCa2; assay type: cell-based; details: PaCa-2; 72 hours of treatment
Description: as §5, §6, §7

[13] = Table 4 selectivity profiling, read-out: IC50 (nM) HDAC6

Row | IC50 [3, 13] | IC50 [4] | IC50 [5] | IC50 [6] | IC50 [7] | IC50 [8] | IC50 [9] | IC50 [11] | Structure (SMILES) | IC50 [10] | IC50 [12] | other results
1 | – | – | – | – | – | – | – | – | C[C@@H]1C[C@H]2[C@@H]3CCC4=CC(=O)C=C[C@]4(C)[C@@]3(F)[C@@H](O)C[C@]2(C)[C@@]1(O)C(=O)CO [DEX, dexamethasone, reference compound] | – | – | % apoptosis U266 ([1]; 1 μM DEX alone): 42%; % apoptosis OPM-2 ([2]; 1 μM DEX alone): 35%
2 | 51 nM | 0.37 µM | 200 nM | 1.1 µM | 3500 nM | 5100 nM | > 200000 nM | 0.68 µM | CC(C)c1ccc(Nc2nc3cc(C(=O)NO)ccc3o2)cc1 [Example 43, N-hydroxy-2-{[4-(1-methylethyl)phenyl]amino}-1,3-benzoxazole-5-carboxamide] | > 20 µM | 1.7 µM | –
3 | 26 nM | 0.65 µM | 1200 nM | 0.62 µM | 1700 nM | 4000 nM | 13000 nM | 0.39 µM | CC(C)c1ccc(-c2nc3cc(C(=O)NO)ccc3o2)cc1 [Example 1, N-Hydroxy-2-[4-(1-methylethyl)phenyl]-1,3-benzoxazole-5-carboxamide] | > 20 µM | 0.98 µM | IC50 ([3]; Table 3, read-out: IC50 (nM) for inhibition of HDAC6): 26 nM; % apoptosis U266 ([1]; 1 μM Ex. 1 alone): 30%; % apoptosis U266 ([1]; 2.5 μM Ex. 1 alone): 59%; % apoptosis U266 ([1]; 5 μM Ex. 1 alone): 43%; % apoptosis U266 ([1]; 10 μM Ex. 1 alone): 88%; % apoptosis OPM-2 ([2]; 1 μM Ex. 1 alone): 3%; % apoptosis OPM-2 ([2]; 2.5 μM Ex. 1 alone): 37%; % apoptosis OPM-2 ([2]; 5 μM Ex. 1 alone): 38%; % apoptosis OPM-2 ([2]; 10 μM Ex. 1 alone): 59%
